From patent publication US11065227B2, “Use of cannabinoids in the treatment of multiple myeloma” (GW Research Limited, priority 2016, dated 2021)
Where two headings read alike, the source gives them in different places.

Columns and labels:
[1] = system: LC3-II/LC3-1 and p62 in U266 and RPMI cell lines; test: Western blot of autophagy markers LC3 and p62; assay type: cell-based; settings: 12.5 μM; 24 h of treatment; FIG. 4A
Method: (§1) U266 and RPMI cell lines were lysed in buffer containing protease inhibitor cocktail (Sigma Aldrich). Lysates were resolved by sodium dodecyl sulphate polyacrylamide gel (8-14%) and transferred onto Hybond-C extra membranes (GE Healthcare, Munich, Germany). Non-specific binding sites were blocked with 5% low-fat dry milk in phosphate-buffered saline 0.1% Tween 20 for 1 h.
(§2) Blots were incubated with the primary Abs: anti-iβ5 subunit (1:1000, Cell Signalling, Denver, Colo., USA), rabbit anti-LC3 (2 μg/ml, Novus Biologicals, Littleton, Colo., USA), rabbit anti-caspase-3 (1:1000, Cell Signalling), rabbit anti-p62 (1:1000, Cell Signalling), rabbit anti-H2AX (1:1000, Cell Signalling) and mouse anti-glyceraldehydes-3-phosphate dehydrogenase (GAPDH, 1:3000, OriGene, Rockville, Md., USA) Abs overnight and then incubated with their respective HRP-conjugated anti-mouse and anti-rabbit (1:2000, Cell Signalling) Abs for 1 h. The detection was performed using the LiteAblot PLUS or the LiteAblot TURBO (EuroClone, Milano, Italy) kits, and densitometric analysis was carried out by a Chemidoc using the Quantity One software (Bio-Rad, Hercules, Calif., USA).
These experiments investigated if the increase in sub-G1 cell accumulation by THC-CBD combination treatment was due to an autophagic-cell death process. […]

[2] = system: CXCR4 and CD147 in U266 and RPMI cell lines; test: CXCR4 and CD147 expression by qRT-PCR; assay type: cell-based; settings: alone and in combination; qRT-PCR and FACS; MM cell lines
U266 and RPMI cell lines [3] = test: Cell migration assay (SDF-1, eCyPA chemotaxis); assay type: cell-based; settings: 24 h treatment; single and in combination; FIG. 8C
RPMI cell line [4] = settings: Morelli et al. 2014, read-out: IC50, reducing cell viability; cited from earlier work
U266 cell line [5] = test: MTT cell viability assay, U266; settings: Homo sapiens
Method: (§3) U266 and RPM18226 (RPMI) MM cell lines were purchased from ATCC (LGC Standards, Milan, IT). Cell authentication was performed by IST (Genova, Italy). Cell lines were cultured in RPMI1640 medium (Lonza, Milan, IT) supplemented with 10% foetal bovine serum (FBS), 2 mM L-glutamine, 100 IU/ml penicillin, 100 μg/ml streptomycin and 1 mM sodium pyruvate. Cell lines were maintained at 37° C. with 5% CO2 and 95% humidity.
(§4) U266 and RPMI cell lines (4×10^4 cells/ml) were seeded in 96-well plates, in a final volume of 100 μl/well. After 1 day of incubation, compounds or vehicles were added. At least four replicates were used for each treatment.
(§5) At the indicated time point, cell viability was assessed by adding 0.8 mg/ml of 3-[4,5-dimethylthiazol-2-yl]-2,5 diphenyl tetrazolium bromide (MTT) (Sigma Aldrich) to the media. […]
(§6) The absorbance of the samples against a background control (medium alone) was measured at 570 nm using an ELISA reader microliter plate (BioTek Instruments, Winooski, Vt., USA). Synergistic activity of the THC-CBD combinations was determined by the isobologram and combination index (CI) methods (CompuSyn Software, ComboSyn, Inc. Paramus, N J 2007). The CI was used to express synergism (CI<1), additivity (CI=1) or antagonism (CI>1) and was calculated according to the standard isobologram equation (Chou, 2006).

RPMI cell line [6] = test: MTT cell viability assay, RPMI
Method: as §3, §4, §5, §6

[7] = system: γ-H2AX (H2AX) in U266 and RPMI cell lines; test: Western blot of γ-H2AX; assay type: cell-based; settings: 24 h post-treatments; both cell lines; FIG. 5C
Method: as §1, §2
The presence of γ-H2AX (H2AX), a phosphorylated variant of histone 2A that is associated with DNA double-strand breaks was investigated.

RPMI = settings: Morelli et al. 2014; cited from earlier work
U266 = settings: Morelli et al. 2014; cited from earlier work
[8] = system: β5i subunit in U266 and RPMI cell lines; test: β5i mRNA by qRT-PCR after IFN-γ; assay type: cell-based; settings: after 24 h IFN-γ (100 U/ml); 12.5 μM; respect to IFN-γ alone; FIG. 6A
U266 cell line [9] = settings: Morelli et al. 2014, read-out: IC50, reducing cell viability; cited from earlier work
[10] = system: β5i subunit in U266 and RPMI cell lines; test: β5i precursor and mature form by western blot after IFN-γ; assay type: cell-based; settings: both cell lines, FIG. 6B
Method: as §1, §2
The potential role of the combination of THC-CBD in regulating the β5i subunit was investigated. U266 and RPMI cell lines were treated with CBD and THC, after 24 h exposure to IFN-γ (100 U/ml).

U266 and RPMI cell lines [11] = test: MTT cell viability assay, statements for both MM cell lines; settings: for CB2 receptor dependence of cytotoxic effect: pre-treatment with 20 μM AM630 (CB2 antagonist), FIG. 2
Method: as §3, §4
At the indicated time point, cell viability was assessed by adding 0.8 mg/ml of 3-[4,5-dimethylthiazol-2-yl]-2,5 diphenyl tetrazolium bromide (MTT) (Sigma Aldrich) to the media. After 3 h, the plates were centrifuged, the supernatant was removed, and the pellet was solubilized with 100 μl/well DMSO.
as §6

U266 and RPMI cell lines [12] = test: Cell cycle analysis by PI staining and FACS, both MM cell lines; assay type: cell-based; settings: 12.5 μM, vs control, FIG. 3

Q: With `C=C(C)[C@@H]1CCC(C)=C[C@H]1c1c(O)cc(CCCCC)cc1O` [CBD, Cannabidiol] as the molecule, how does the LC3-II/LC3-1 ratio [1] read?
A: slight increase

Q: And the “expression of CXCR4 and CD147 chemotactic receptors” value [2]?
A: reduce the expression

Q: What about the “SDF-1-, eCyPA- and SDF-1/eCyPA-mediated chemotaxis compared with vehicle-treated cells” value (U266 and RPMI cell lines [3]) of the same molecule?
A: reduced

Q: What about the IC50 (RPMI cell line [4]) of the same molecule?
A: 22.4 µM

Q: What about the cytotoxicity at 12.5 µM (U266 cell line [5]; U-266, read-out: decrease in cell viability) of the same molecule?
A: 20%

Q: And the cytotoxicity at 12.5 µM (RPMI cell line [6]; read-out: decrease in cell viability)?
A: 20%

Q: And the “levels of the phosphorylated form of H2AX” value [7]?
A: increase levels

Q: And the “blocking cell cycle in GO/G1 phase” value (RPMI)?
A: 42%

Q: What about the “blocking cell cycle in GO/G1 phase” value (U266) of the same molecule?
A: 38%

Q: And the “β5i expression level (mRNA) induced by IFN-γ” value [8]?
A: low effects

Q: And the IC50 (U266 cell line [9])?
A: 19.8 µM

Q: What about the “expression of precursor and mature form of β5i (protein)” value [10] of the same molecule?
A: low efficacy

Q: And the “cytotoxic effects after pre-treatment with BAF1” value (U266 and RPMI cell lines [11])?
A: reversed

Q: What about the “CB2 receptor dependence of cytotoxic effect” value (U266 and RPMI cell lines [11]) of the same molecule?
A: not CB2 receptors dependent

Q: Which results are given for `CC(C)C[C@H](NC(=O)[C@H](CCc1ccccc1)NC(=O)CN1CCOCC1)C(=O)N[C@@H](Cc1ccccc1)C(=O)N[C@@H](CC(C)C)C(=O)[C@@]1(C)CO1` [CFZ, carfilzomib]?
A: expression of CXCR4 and CD147 chemotactic receptors [2]: reduce the expression; SDF-1-, eCyPA- and SDF-1/eCyPA-mediated chemotaxis compared with vehicle-treated cells (U266 and RPMI cell lines [3]): reduced; cell viability (U266 and RPMI cell lines [11]; presence or absence of IFN-γ, 72 h post-treatment, data not shown): reduced cell viability

Q: Which LC3-II/LC3-1 ratio [1] does the source give for `CCCCCc1cc(O)c2c(c1)OC(C)(C)[C@@H]1CCC(C)=C[C@@H]21` [THC, Tetrahydrocannabinol] here?
A: no effect

Q: And the “accumulation in sub-G1 phase (hypodiploid DNA)” value (U266 and RPMI cell lines [12]; 48 h post-treatment)?
A: accumulation in sub-G1 phase

Q: And the “cell accumulation in G1 phase” value (U266 and RPMI cell lines [12]; starting from 24 h post-treatment)?
A: induce cell accumulation in G1 phase

Q: What about the “expression of CXCR4 and CD147 chemotactic receptors” value [2] of the same molecule?
A: reduce the expression

Q: And the “SDF-1-, eCyPA- and SDF-1/eCyPA-mediated chemotaxis compared with vehicle-treated cells” value (U266 and RPMI cell lines [3])?
A: reduced

Q: What about the IC50 (U266 cell line [5]; U-266, 72 h, read-out: IC50, cell viability) of the same molecule?
A: 39.5 µM

Q: What about the IC50 (RPMI cell line [6]; 72 h, read-out: IC50, cell viability) of the same molecule?
A: 30.8 µM

Q: What about the “levels of the phosphorylated form of H2AX” value [7] of the same molecule?
A: increase levels

Q: And the “β5i expression level (mRNA) induced by IFN-γ” value [8]?
A: low effects

Q: And the “expression of precursor and mature form of β5i (protein)” value [10]?
A: low efficacy

Q: And the “CB2 receptor dependence of cytotoxic effect” value (U266 and RPMI cell lines [11])?
A: not CB2 receptors dependent
